In US20110105434A1, “2-AMINO PURINE DERIVATIVES AND THEIR USE AS ANTI-HERPETIC AGENTS” (priority 2007, published 2011):
Like-named read-outs stand apart in the source and are kept apart here.

Columns and labels:
[1] = tested on: herpes-infected patient with kyphosis; assay: kyphosis; type: in vivo, human; conditions: 300 mg/kg per day
Method: Another condition observed in a herpes-infected patient was kyphosis or abnormal curvature of the upper spine. Generally, kyphosis is thought to result from habitual poor posture. However, kyphosis is sometimes caused by abnormal contraction of some spinal muscles. When the patient received 300 mg/kg of famciclovir per day, their posture improved as the contracted spinal muscles relaxed.

[2] = tested on: patient with nose and brow acne and rosacea; assay: acne and rosacea; type: in vivo, human; conditions: 300 mg/kg per day
Method: Additional symptoms relieved by the high doses of anti-herpes drugs involve severe nose and brow acne and rosacea on the chin and lower cheeks. Although the mechanism for these conditions is not understood, they are believed to be of autoimmune origin. Both skin conditions disappeared at 300 mg/kg of famciclovir per day and recurred when the drug was stopped.

[3] = body pH of 7.4; cited from earlier work
[4] = tested on: patient with cranial nerve palsy; assay: cranial nerve palsy (loss of control of soft palate) and loss of sympathetic nerve function; type: in vivo, human
Text: The loss of sympathetic nerve functions, can occur with a loss of control of some function of some autonomic muscles, or loss of sensation or both. This is not as common as 1 through 6, above. And, the effects are usually not as severe. One example is the loss of control of the soft palate, either partial or complete which can cause severe snoring, and is part of the sleep apnea syndrome, and also can cause a snorting sound when talking or laughing, or can cause food to get caught under the soft palate. Another condition is cranial nerve palsies as discussed in the Sixteenth Edition of the Merck Manual at page 2395. […] This new treatment effectively suppresses all of these conditions, and in at least one patient return of most lost function of the soft palate has occurred. In another there was significant return of anal sphincter tone with these doses which had been previously lost on the doses of '114.
A patient was experiencing the loss of control of the soft palate because it could not properly contract, a condition known as cranial nerve palsy. The condition causes snorting during talking and difficulty swallowing food. The food often lodges above the soft palate. These symptoms were 80% eliminated at 300 mg/kg of famciclovir per day.

[5] = tested on: patient with muscle spasms, pain and inability to sleep; assay: muscle spasms, pain, sleep and restless leg; type: in vivo, human; conditions: 300 mg/kg per day
Method: Severe sleep disturbance can be caused by inability to relax the axial muscles due to hypertonus. It is not appreciated by those without hypertonus of the muscles, but it is necessary for the somatic muscles to relax to a predetermined level, before sleep will commence. Hypertonus can prevent that relaxation and prevent sleep. One patient was unable to achieve normal REM sleep for over 15 years, when their autoimmune disease was treated with the current treatments, which are essentially ineffective. However, this same patient was restored to essentially […] on the doses of this invention. Additionally this patient suffered from severe “restless leg syndrome” which is caused by the same disease conditions of the sympathetic chain as causes all above. […] At the levels of '114 these benefits were only slightly apparent, with the doses of this application normal REM sleep is restored. And, if the drug levels of the 2-aminopurines are allowed to drop for only a few hours the inability to sleep, and the severe restless leg return to the afflicted. […] The relationship of the appearance or suppression of the signs or symptoms of sleep disturbance to the onboard drug level is consistent and dramatic. […] The patient was administered 300 mg/kg of famciclovir per day and experienced relief of 90% of the spasms and pain. […]

[6] = tested on: patient with rheumatoid arthritis; assay: rheumatoid arthritis signs or symptoms; type: in vivo, human; conditions: 300 mg/kg per day
Method: Another effect of anti-herpes drugs was elimination of the signs or symptoms of rheumatoid arthritis. A patient experienced 100% reduction in joint swelling, pain, inflammation and clicks at 300 mg/kg of famciclovir per day.

[7] = tested on: patient with urination problems; assay: urination problems (benign prostate hypertrophy symptoms); type: in vivo, human; conditions: 300 mg/kg per day, taken in 6 hour increments
Method: The same high doses of famciclovir also relieved urination problems in a patient, such as hesitancy, weak stream and retention. These signs or symptoms are usually associated with benign prostate hypertrophy. However, without taking any prostate-specific drugs, but famciclovir alone, the patient achieved substantial relief of these symptoms. The signs or symptoms disappeared or were at least 90% relieved at 300 mg/kg of famciclovir per day, taken in 6 hour increments. The symptoms returned in about 10 hours when the drug was taken every 10 hours instead of every six hours. When the drug was taken every 6 hours, the symptoms, once again, disappeared.

[8] = tested on: patient with Prinzmetal's angina; assay: Prinzmetal's angina chest pain and blood pressure; type: in vivo, human; conditions: 300 mg/kg per day
Method: Another effect of the treatment of this invention was reduction in chest pain. A patient with an autoimmune disease was experiencing severe chest pains or Prinzmetal's angina—a coronary artery spasm and associated cardiac ischemia. After taking high doses of anti-herpes drugs, but no drugs specifically for the heart, the patient reported a marked reduction in the symptoms of Prinzmetal's angina, specifically, 95% reduction in pain at 300 mg/kg of famciclovir per day.

[9] = tested on: patient with reduced renal function; conditions: on the doses of '114 (maximum 120 mg/kg/day); improved from 29 mL/min; cited from earlier work
[10] = tested on: patient with reduced renal function; assay: creatinine clearance (renal function) in a patient with autoimmune disease; type: in vivo, human
Text: Patients with autoimmune disease often suffer significant inflammation of the kidneys, often causing renal dysfunction and/or destruction, which can lead to death in the absence of dialysis. A clinical laboratory measure of kidney function is creatinine clearance. Creatinine is the metabolic product formed from creatine when food is converted to energy. Creatinine is produced at a steady state and is affected very little by diet or normal physical activities. When a subject's kidneys are damaged and/or cannot function normally, the amount of creatinine excreted in the subject's urine decreases while its level in the blood increases. Thus, the blood level of creatinine indicates how well the kidneys are working. A high level generally means the kidneys are not functioning properly. A creatinine clearance test is performed both on a blood sample taken from the subject's vein and on a sample of urine collected over 24 hours. […] A normal creatinine level is less than 1, and normal CrCl levels are typically >100 mL/min. Dialysis is usually required when CrCl levels fall below about 20 mL/min.

For `CC(=O)OCC(CCn1cnc2cnc(N)nc21)COC(C)=O` [famciclovir, 2-amino-9-(4-acetoxy-3-acetoxymethylbut-1-yl)purine], the posture in kyphosis [1] is given as “improved”, the “skin conditions (acne, rosacea)” value [2] is given as “disappeared” and the “water solubility compared with other representative compounds such as acyclovir” value [3] is given as “more water soluble”. The “soft palate muscle strength” value ([4]; 300 mg/kg daily, over a six-month period) was “gradually returned”, the “cranial nerve palsy symptoms eliminated” value ([4]; 300 mg/kg per day) was 80% and the “relief of the spasms and pain” value [5] was 90%. For the same compound, the “severe bowel and back pain and spasms relieved” value [5] was “about 80%”, the “reduction in joint swelling, pain, inflammation and clicks” value [6] was 100% and the “urination signs or symptoms (hesitancy, weak stream, retention) relieved” value [7] was “at least 90%”. For the same compound, the “reduction in pain of Prinzmetal's angina” value [8] was 95%, the elevated blood pressure ([8]; blood pressure lowering medication reduced to a minimum) was “no hypertension” and the creatinine clearance level [9] was 89 mL/min. For the same compound, the creatinine clearance level ([10]; dose increased from '114 level to levels of this application, from 89 mL/min, 100 kg man) was 143 mL/min and the impaired kidney function ([10]; more than 250 mg/kg of body weight per day) was “significant improvement”.
